These results are taken from publication PMC9609996, “SAR Study and Molecular Mechanism Investigation of Novel Naphthoquinone-furan-2-cyanoacryloyl Hybrids with Antitumor Activity” (Pharmaceutics, 2022).

The subject of one test is L02 cells. Nature of the test: CCK-8 assay on normal cells, L02. Format: cell-based. The following applies: L02 human normal hepatocytes, 48 h, mean ± SD. As for the experimental part: (§1) Human cervical cancer HeLa, human prostate cancer PC3, human colonic carcinoma HCT116, human lung carcinoma A549, human breast cancer MDA-MB-231, mouse melanoma B16, human ovarian cancer SKOV3, human hepatoma Hep3B, and human liver L02 cells were purchased from the Cell Bank of Shanghai Institute of Biochemistry and Cell Biology, Chinese Academy of Sciences (Shanghai, China). The HeLa, A549, B16, PC3, MDA-MB-231, HCT116, and L02 cells were cultured in Dulbecco’s modified Eagle medium (DMEM, Gibco Inc.; Gaithersburg, MD, USA). All cultures were supplied with 10% fetal bovine serum (FBS; YHSM, Beijing, China), 100 IU/mL of penicillin, and 100 μg/mL of streptomycin, and cells were incubated at 37 °C in an atmosphere of 5% CO2.
(§2) A CCK-8 kit (MCE, USA) was used to perform a CCK-8 assay. Cells were plated and grown in the 96-well plates for the indicated period (48 h) in the incubator, followed by an incubation with the CCK-8 solutions for 1–4 h. Subsequently, the absorbance (450 nm) was measured by a microplate reader. The median inhibitory concentration (IC50) was determined from the dose–response curve. Experiments were performed in a triplicate.

The next test relates to A549. Description: CCK-8 anti-proliferation assay, A549. The following applies: mean ± SD; for IC50: 48 h. Format: cell-based, human. As for the experimental part: as §1, §2
(Tetrazolium dyes change colour on reduction, which living cells bring about.)

For test [1], the system named is four cancer cell lines (HeLa, PC3, A549, and HCT116). Nature of the test: CCK-8 inhibition rates over four cancer cell lines. Format: cell-based. The following applies: Homo sapiens, HeLa, PC3, A549, HCT116, CCK-8, read-out: inhibition rate, span over the four cancer cell lines. As for the experimental part: First, the inhibition rates at 20 μM for all newly synthesized compounds were evaluated on four cancer cell lines (HeLa, PC3, A549, and HCT116) by a CCK-8 assay. […] A variety of aliphatic amine substituents were well tolerated (4e, 4f, 5c, and 8f).
as §1, §2

For test [2], the system named is AKT phosphorylation in HeLa cells. Nature of the test: Western blot, AKT phosphorylation. Format: cell-based, human. The following applies: 6 h interval. As for the experimental part:
Protein levels were determined by the standard Western blot assay. […] Cells harvested with trypsin were treated with 1× RIPA lysis buffer (50 mM Tris-HCl, pH 7.4, 150 mM NaCl, 0.25% deoxycholic acid, 1% NP-40, 1 mM ethylenediaminetetraacetate (EDTA), and protease inhibitor PMSF (Solarbio, Beijing, China) to extract the total proteins. Then, an aliquot of proteins from the total cell lysates (4–40 μg/lane) was separated using sodium dodecyl sulfate (8, 10, or 12%) polyacrylamide gel electrophoresis (BioRad Laboratories, Hercules, CA, USA). The aliquot was wet-transferred to a PVDF membrane (BioRad Laboratories, Hercules, CA, USA), blotted with primary antibodies (purchased from Cell Signaling Technology, Danvers, MA, USA) specific for the STAT3 (#12640), p-STAT3 (#9145), AKT (#4691), p-AKT (#4060), Bax (#5023), Bcl-xl (#2764), secondary isotype-specific antibodies (#7074) and glyceraldehyde-3-phosphate dehydro-genase (GAPDH, #2118) as the internal standard overnight; then, they were probed with secondary isotype-specific antibodies for another 2 h at 37 °C. The bound immuno-complexes were detected using a ChemiDOC XRS+ system (BioRad Laboratories, Hercules, CA, USA).
For orientation: A western blot detects proteins with antibodies after separation by electrophoresis.

The test system of test [3] is HeLa cells. Description: Wound healing assay. Format: cell-based, human. The following applies: 6 μM, 48 h. The procedure:
A total of 1 × 10^6 HeLa cells/well in the logarithmic growth phase were seeded into 6-well plates. When the cell density reached 80–90%, a scratch was made in the monolayer in the middle of the well with a 200 μL pipette tip. The tip was kept perpendicular to the bottom of the well to obtain a straight gap. The detached cells were washed away and removed. Wound healing within the same scraped line was then observed and photographed at the indicated time points (0 h, 24 h, and 48 h). Images were taken at 0 h, 24 h and 48 h after scraping using a phase-contrast microscope. The wound closure was calculated as a percentage (%) of the difference in the width of the wound between 0 h, 24 h and 48 h relative to 0 h, as described below: Wound closure (%) = (Width of wound at 0 h − Width of wound at 24 h)/Width of wound at 0 h × 100%

The subject of another test is STAT3 in HeLa cells. Nature of the test: Western blot, STAT3 and p-STAT3 (Y705). The following applies: 6–12 μM, 24 h. Format: cell-based, human. As for the experimental part:
As many quinone compounds have anti-proliferation activity by inhibiting the STAT3 [34], we evaluated whether compound 5c could inhibit its phosphorylation. HeLa cells were incubated with different concentrations (6–12 μM) of 5c for 24 h. Then, the levels of total STAT3 and phosphorylated STAT3 at the tyrosine 705 residue were detected by a Western blot analysis.
Protein levels were determined by the standard Western blot assay. HeLa cells were incubated with different concentrations of compound 5c or 0.1% DMSO for 24 h. […] The bound immuno-complexes were detected using a ChemiDOC XRS+ system (BioRad Laboratories, Hercules, CA, USA).

Test [4] concerns HeLa cells. Description: Colony formation assay. The following applies: treated 24 h, cultured two weeks. Format: cell-based, human. As for the experimental part: HeLa cells were cultured at 1 × 10^3 cells per well in a 6-well plate with a regular growth medium for 12 h. After the cells were fixed on the wall, they were treated with different concentrations of compound 5c or 0.1% DMSO for 24 h. Then, the cells were cultured in a fresh medium for two weeks until the colonies were visible. A crystal violet staining solution (Beyotime, Shanghai, China) was used to stain the colonies for 30 min, and the result was recorded by a smartphone. The colonies were defined as >50 cells/colony.

Another test deals with Hep3B. Description: CCK-8 anti-proliferation assay, Hep3B. Format: cell-based, human. The following applies: 48 h, mean ± SD. The procedure:
as §1, §2

Usually IC50 stands for the point on the concentration scale where inhibition reaches its midpoint. By inhibition is commonly meant the percentage by which the read-out fell short of the control. As to `N#C/C(=C\c1ccc(C2=CC(=O)c3ccccc3C2=O)o1)C(=O)NCCN1CCOCC1` [Compound 5c, (E)-2-cyano-3-(5-(1,4-dioxo-1,4-dihydronaphthalen-2-yl)furan-2-yl)-N-(2-morpholinoethyl)acrylamide], the IC50 in the test on L02 cells was 51.7 ± 0.1 µM; with A549 it was 35.27 ± 0.07 µM; with A549 (Homo sapiens, A549, 48 h), more than 20.5 µM; in the test on Hep3B, 34.77 ± 0.03 µM; with Hep3B (Homo sapiens), more than 20.5 µM. Moreover, the inhibition at 20 µM with A549 (Homo sapiens, A549, 20 μM, read-out: Inhibition Rate (%) at 20 μM A549) was 24.69 ± 0.04%; in test [1], 24.7 to 75.8%. In test [2], the “phosphorylation level of AKT” value is recorded as “effectively inhibited”. For the same compound, the cell migration entry with HeLa cells [3] was “significantly inhibited”. Also, the “Y705 STAT3 phosphorylation” value in the test with STAT3 in HeLa cells is on record as “dose-dependently abrogated”. Moreover, the “level of total STAT3” value in the test on STAT3 in HeLa cells was “slightly down-regulated”. Further, the “colony forming ability of HeLa cells” value in the test with HeLa cells [4] was “significantly inhibited”.
